Assay results taken from patent publication US20200054651A1, “COMPOSITIONS AND METHODS FOR MODULATING PPP2R1A” (The Regents of the University of California, priority 2017, published 2020).

Legend:
[1] = system: 231MFP breast cancer cells; test: 231MFP cell proliferation (Hoechst staining); type: cell-based; conditions: 100 μM, 48 h, 231MFP
[2] = target: T1, pure human PPP2R1A protein (Homo sapiens, UniProt P30153); test: Gel-based ABPP, competition against IAyne labeling; type: binding; conditions: 30 min at 37° C. pre-treatment, IAyne labeling
T1 construct: purchased Origene
T1 sequence (P30153 whole entry): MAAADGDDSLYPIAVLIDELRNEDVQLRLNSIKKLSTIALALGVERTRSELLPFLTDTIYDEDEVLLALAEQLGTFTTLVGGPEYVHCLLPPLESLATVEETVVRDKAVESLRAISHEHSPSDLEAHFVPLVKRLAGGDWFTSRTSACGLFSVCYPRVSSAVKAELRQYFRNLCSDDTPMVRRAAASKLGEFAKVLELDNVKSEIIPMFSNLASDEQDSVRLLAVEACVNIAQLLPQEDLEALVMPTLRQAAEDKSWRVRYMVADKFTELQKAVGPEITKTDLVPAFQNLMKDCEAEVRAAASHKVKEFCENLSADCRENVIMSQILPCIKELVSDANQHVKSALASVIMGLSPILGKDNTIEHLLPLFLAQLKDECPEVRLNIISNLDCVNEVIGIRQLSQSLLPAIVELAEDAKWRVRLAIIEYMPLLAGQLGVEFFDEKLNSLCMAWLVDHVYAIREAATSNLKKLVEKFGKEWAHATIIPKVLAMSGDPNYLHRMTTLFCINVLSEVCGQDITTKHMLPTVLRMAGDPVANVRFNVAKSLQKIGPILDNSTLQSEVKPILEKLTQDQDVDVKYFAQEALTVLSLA
Description: Gel-based ABPP methods were performed using the methods described in “Chem Biol 22(10), 1394-1405 (2015)” by Medina-Cleghorn D., et al. Recombinant pure human proteins were purchased from Origene. Pure proteins were pre-treated with DMSO, Withaferin A, or acrylamide or chloroacetamide compounds (e.g., DKM 2-90 or JNS 1-40) for 30 minutes at 37° C. in an incubation volume of PBS (50 μL), and were subsequently treated with IAyne (10 μM final concentration) for 30 minutes at room temperature. CuAAC was performed to append rhodamine-azide onto IAyne probe-labeled proteins. The samples were separated by SDS/PAGE and scanned using a ChemiDoc MP. Inhibition of target labeling was assessed by densitometry using ImageStudio Light software.

| SMILES | cell proliferation [1] | IC50 [2] [µM] |
| --- | --- | --- |
| O=C(CCl)Nc1cccc2c1CCC2 [DKM 2-91] | lead compounds |  |
| O=C(CCl)Nc1ccc2c(c1)CCCC2 [JNS 1-37, 2-Chloro-N-(5,6,7,8-tetrahydronaphthalen-2-yl)acetamide] |  | 300 |
